Source: ChEMBL document CHEMBL1129865, “Synthesis, evaluation, and crystallographic analysis of L-371,912: A potent and selective active-site thrombin inhibitor” (Bioorg Med Chem Lett, 1997)

How the values were obtained:
[1] = Concentration required to double the activated partial thromboplastin time in human plasma was determined; type: functional
Rattus norvegicus [2] = experiment: Efficacy by observing the number of occulation in rat when a dose of 6 ug/Kg/min iv. administration; 1/6; type: functional
Rattus norvegicus [3] = experiment: Efficacy by observing the number of occulation in rat when a dose of 6 ug/Kg/min iv. administration; 3/6; type: functional
Serine protease 1 = molecular target: T1, Serine protease 1 (Bos taurus, UniProt P00760); experiment: In vitro inhibition against bovine trypsin was determined
T1 sequence (P00760 whole entry): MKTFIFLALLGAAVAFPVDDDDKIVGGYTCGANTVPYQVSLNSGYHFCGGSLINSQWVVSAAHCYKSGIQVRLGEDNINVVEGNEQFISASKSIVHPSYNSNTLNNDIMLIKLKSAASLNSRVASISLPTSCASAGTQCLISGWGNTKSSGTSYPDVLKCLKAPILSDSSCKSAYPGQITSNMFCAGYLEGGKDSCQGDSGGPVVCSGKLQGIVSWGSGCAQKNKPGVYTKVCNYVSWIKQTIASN

SMILES	APPTT [1]	Occulations (Rattus norvegicus [2])	Occulations (Rattus norvegicus [3])	Ki (Serine protease 1)
CN[C@H](Cc1ccccc1)C(=O)N1CCC[C@H]1C(=O)NC[C@H]1CC[C@H](N)CC1	1.1 µM	1	–	–
CNC(=O)C(=O)[C@@H](NC(=O)[C@@H]1CCCN1C(=O)[C@@H](Cc1ccccc1)NC)[C@H]1CC[C@H](N)CC1	2 µM	–	3	1150 nM
